The source of these data is patent EP4483954A1 (Masarykova Univerzita, priority 2023, dated 2025).

In this experiment the target is T1, Haspin (h) (Homo sapiens, UniProt Q8TF76).
T1 construct: purchased Eurofins (KinaseProfiler)
T1 sequence (Q8TF76 1-798): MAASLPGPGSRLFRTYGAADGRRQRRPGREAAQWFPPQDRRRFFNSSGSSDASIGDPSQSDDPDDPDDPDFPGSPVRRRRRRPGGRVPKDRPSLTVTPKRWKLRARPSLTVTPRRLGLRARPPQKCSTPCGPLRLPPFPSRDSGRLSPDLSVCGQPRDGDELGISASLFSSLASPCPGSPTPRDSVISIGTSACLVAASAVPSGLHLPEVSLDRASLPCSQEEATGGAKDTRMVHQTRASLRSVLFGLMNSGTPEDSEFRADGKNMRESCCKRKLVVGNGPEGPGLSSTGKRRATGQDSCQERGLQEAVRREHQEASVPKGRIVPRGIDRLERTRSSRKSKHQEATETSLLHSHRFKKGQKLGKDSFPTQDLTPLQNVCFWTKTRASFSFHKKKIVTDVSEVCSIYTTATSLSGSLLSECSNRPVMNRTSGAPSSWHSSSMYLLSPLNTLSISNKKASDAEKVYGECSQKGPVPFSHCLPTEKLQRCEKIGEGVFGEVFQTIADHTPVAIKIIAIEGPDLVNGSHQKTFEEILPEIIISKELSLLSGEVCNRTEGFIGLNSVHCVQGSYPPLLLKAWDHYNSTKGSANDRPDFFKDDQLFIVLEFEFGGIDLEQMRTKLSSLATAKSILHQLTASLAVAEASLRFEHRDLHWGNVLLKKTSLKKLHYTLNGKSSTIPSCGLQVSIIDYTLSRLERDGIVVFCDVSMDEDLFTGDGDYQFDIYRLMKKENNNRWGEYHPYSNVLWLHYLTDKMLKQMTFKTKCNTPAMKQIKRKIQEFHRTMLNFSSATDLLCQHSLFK
The experiment can be described thus: radiometric kinase assay (KinaseProfiler, Eurofins), Haspin. As to conditions: in vitro radiometric kinase assay, tested at 1 nM to 10 000 nM, no pre-incubation; read-out: inhibitory activities (IC50 values) Haspin. It is filed as biochemical. The protocol:
The compounds were profiled in the radiometric assays (KinaseProfiler, Eurofins).
Briefly, kinases were diluted in the buffer shown below prior to addition to the reaction mix: • CDKL3, TAF1L: 20 mM Tris/HCl pH 8.5, 0.2 mM EDTA, 0.1% β-mercaptoethanol, 0.01% Brij-35, 5% glycerol, 1 mg/ml BSA; • Haspin: 15 mM MOPS, 0.75 mM EDTA, 0.0075% Brij-35, 3.75% Glycerol, 150 mM NaCl, 0.1% β-mercaptoethanol, 1 mg/mLBSA; • CDKL4, CLK2, PIM1, TRB2: […], 1 mM EDTA, 0.01% Brij-35, 5% Glycerol, 0.1% β-mercaptoethanol, 1 mg/mL BSA.
All compounds were prepared to 50x final assay concentration in 100% DMSO. This working stock of the compound was added to the assay well as the first component in the reaction, followed by the remaining components as detailed in the general assay protocols below. There was no pre-incubation step between the compound and the kinase prior to initiation of the reaction.
Haspin (h) was incubated with 8 mM MOPS pH 7.0, 0.2 mM EDTA, 500 µM RARTLSFAEPG (SEQ ID NO. 3), 10 mM magnesium acetate and γ-^33P-ATP (specific activity and concentration as required). The reaction was initiated by the addition of the Mg/ATP mix. After incubation for 40 minutes at room temperature, the reaction was stopped by the addition of phosphoric acid to a concentration of 0.5%. An aliquot of the reaction was then spotted onto a filter and washed four times for 4 minutes in 0.425% phosphoric acid and once in methanol prior to drying and scintillation counting.
Kinase activity data were expressed as the percent remaining kinase activity in tested samples compared to the vehicle (DMSO) reactions. The compounds were tested at the following concentrations: 1 nM, 3 nM, 10 nM, 30 nM, 100 nM, 300 nM, 1000 nM, 3000 nM, and 10 000 nM; IC50 values and curve fits were then obtained.

As usually defined, the IC50 is the concentration at which inhibition is half-maximal. Regarding `CCOC(=O)c1cc(Nc2ccc3scc(-c4ccncc4)c3n2)nn1C` [Preparative Example 105, Ethyl 1-methyl-3-((3-(pyridin-4-yl)thieno[3,2-b]pyridin-5-yl)amino)-1H-pyrazole-5-carboxylate], the IC50 fell in the range of 3000 to 10000 nM.

As to `CSc1cn(C)nc1Nc1ccc2scc(-c3ccncc3)c2n1` [Preparative Example 106, N-(1-methyl-4-(methylthio)-1H-pyrazol-3-yl)-3-(pyridin-4-yl)thieno[3,2-b]pyridin-5-amine], the IC50 lay in the range of 100 to 499 nM.

Take `CCOC(=O)c1cn(C)nc1Nc1ccc2scc(-c3ccncc3)c2n1` [Preparative Example 107, Ethyl 1-methyl-3-((3-(pyridin-4-yl)thieno[3,2-b]pyridin-5-yl)amino)-1H-pyrazole-4-carboxylate]: the IC50 was in the range of 3000 to 10000 nM.

In the case of `Cn1ccc(CNc2ccc3scc(-c4ccncc4)c3n2)n1` [Preparative Example 108, N-((1-methyl-1H-pyrazol-3-yl)methyl)-3-(pyridin-4-yl)thieno[3,2-b]pyridin-5-amine], the half-maximal inhibitory concentration (IC50) fell in the range of 3000 to 10000 nM.

With `Cn1ccc(Oc2ccc3scc(-c4ccncc4)c3n2)n1` [Preparative Example 110, 5-((1-methyl-1H-pyrazol-3-yl)oxy)-3-(pyridin-4-yl)thieno[3,2-b]pyridine], the IC50 lay in the range of 100 to 499 nM.

On to `c1ccc(-c2ccc3scc(-c4ccncc4)c3n2)nc1` [Preparative Example 111, 5-(pyridin-2-yl)-3-(pyridin-4-yl)thieno[3,2-b]pyridine], for which the IC50 fell in the range of 100 to 499 nM.

Take `c1cnc(-c2ccc3scc(-c4ccncc4)c3n2)nc1` [Preparative Example 112, 3-(pyridin-4-yl)-5-(pyrimidin-2-yl)thieno[3,2-b]pyridine]: the IC50 was in the range of 3000 to 10000 nM.

`c1cnnc(Nc2ccc3scc(-c4ccncc4)c3n2)c1` [Preparative Example 113, N-(pyridazin-3-yl)-3-(pyridin-4-yl)thieno[3,2-b]pyridin-5-amine]: the IC50 lay within 100 to 499 nM.

Take `c1cc(-c2csc3ccc(Nc4ccncn4)nc23)ccn1` [Preparative Example 114, 3-(pyridin-4-yl)-N-(pyrimidin-4-yl)thieno[3,2-b]pyridin-5-amine]: the IC50 was in the range of 500 to 3000 nM.

In the case of `c1cnc2c(-c3ccc4scc(-c5ccncc5)c4n3)cnn2c1` [Preparative Example 115, 5-(pyrazolo[1,5-a]pyrimidin-3-yl)-3-(pyridin-4-yl)thieno[3,2-b]pyridine], the IC50 was in the range of 500 to 3000 nM.

In the case of `CC(C)(C)OC(=O)N1CCOC(COc2ccc3scc(-c4ccncc4)c3n2)C1` (stereo not drawn) [Preparative Example 116, tert-butyl 2-(((3-(pyridin-4-yl)thieno[3,2-b]pyridin-5-yl)oxy)-methyl)morpholine-4-carboxylate], the IC50 lay within 3000 to 10000 nM.

Take `CC(C)(C)OC(=O)N1CCO[C@H](COc2ccc3scc(-c4ccncc4)c3n2)C1` [Preparative Example 117, tert-butyl (S)-2-(((3-(pyridin-4-yl)thieno[3,2-b]pyridin-5-yl)oxy)-methyl)morpholine-4-carboxylate]: the 50% inhibitory concentration (IC50) is 3000 to 10000 nM.

`c1cc(-c2csc3ccc(OCC4CNCCO4)nc23)ccn1` (stereo not drawn) [Preparative Example 118, 2-(((3-(pyridin-4-yl)thieno[3,2-b]pyridin-5-yl)oxy)methyl)-morpholine]: the IC50 was in the range of 100 to 499 nM.

Take `Cn1ccc(-c2ccc3scc(-c4ccns4)c3n2)n1` [Preparative Example 119, 3-(isothiazol-5-yl)-5-(1-methyl-1H-pyrazol-3-yl)thieno[3,2-b]pyridine]: the IC50 lay in the range of 100 to 499 nM.

On to `Cn1cc(C#N)c(Nc2ccc3scc(-c4ccns4)c3n2)n1` [Preparative Example 120, 3-((3-(isothiazol-5-yl)thieno[3,2-b]pyridin-5-yl)amino)-1-methyl-1H-pyrazole-4-carbonitrile], for which the IC50 was in the range of 20 to 99 nM.

`c1ccc(-c2csc3ccc(-c4cn[nH]c4)nc23)cc1` [Preparative Example 121, 3-phenyl-5-(1H-pyrazol-4-yl)thieno[3,2-b]pyridine]: the IC50 fell in the range of 100 to 499 nM.

Take `CCOC(=O)c1cn(C)nc1Nc1ccc2scc(-c3ccnc(NC(=O)OC(C)(C)C)c3)c2n1` [Preparative Example 126, Ethyl 3-((3-(2-((tert-butoxycarbonyl)amino)pyridin-4-yl)thieno[3,2-b]pyridin-5-yl)amino)-1-methyl-1H-pyrazole-4-carboxylate]: the IC50 was in the range of 3000 to 10000 nM.

For the molecule `COC(=O)c1cn(C)nc1Nc1ccc2scc(-c3ccnc(CN)c3)c2n1` [Preparative Example 128, Methyl 3-((3-(2-(aminomethyl)pyridin-4-yl)thieno[3,2-b]pyridin-5-yl)amino)-1-methyl-1H-pyrazole-4-carboxylate], the 50% inhibitory concentration (IC50) is 3000 to 10000 nM.

For the molecule `Cn1ccc(-c2ccc3scc(-c4ccc5ncnn5c4)c3n2)n1` [Preparative Example 129, 3-([1,2,4]triazolo[1,5-a]pyridin-6-yl)-5-(1-methyl-1H-pyrazol-3-yl)thieno[3,2-b]pyridine], the half-inhibitory concentration (IC50) was in the range of 100 to 499 nM.

Regarding `c1cnc(-c2ccc3scc(-c4ccc5ncnn5c4)c3n2)nc1` [Preparative Example 130, 3-([1,2,4]triazolo[1,5-a]pyridin-6-yl)-5-(pyrimidin-2-yl)thieno[3,2-b]pyridine], the IC50 was 500 to 3000 nM.

On to `c1cncc(-c2ccc3scc(-c4ccc5ncnn5c4)c3n2)c1` [Preparative Example 131, 3-([1,2,4]triazolo[1,5-a]pyridin-6-yl)-5-(pyridin-3-yl)thieno[3,2-b]pyridine], for which the IC50 fell in the range of 100 to 499 nM.

`c1cc(-c2ccc3scc(-c4ccc5ncnn5c4)c3n2)ccn1` [Preparative Example 132, 3-([1,2,4]triazolo[1,5-a]pyridin-6-yl)-5-(pyridin-4-yl)thieno[3,2-b]pyridine]: the IC50 was in the range of 20 to 99 nM.

With `CC(C)(C)OC(=O)n1cc(Nc2ccc3scc(-c4ccc5ncnn5c4)c3n2)cn1` [Preparative Example 133, tert-butyl 4-((3-([1,2,4]triazolo[1,5-a]pyridin-6-yl)thieno[3,2-b]pyridin-5-yl)amino)-1H-pyrazole-1-carboxylate], the IC50 was in the range of 3000 to 10000 nM.

`c1nc2ccc(-c3csc4ccc(Nc5cn[nH]c5)nc34)cn2n1` [Preparative Example 134, 3-([1,2,4]triazolo[1,5-a]pyridin-6-yl)-N-(1H-pyrazol-4-yl)thieno[3,2-b]pyridin-5-amine]: the half-maximal inhibitory concentration (IC50) was 100 to 499 nM.

As for `Cn1ccc(Nc2ccc3scc(-c4ccc5nncn5c4)c3n2)n1` [Preparative Example 135, 3-([1,2,4]triazolo[4,3-a]pyridin-6-yl)-N-(1-methyl-1H-pyrazol-3-yl)thieno[3,2-b]pyridin-5-amine], the IC50 lay in the range of 500 to 3000 nM.

For `Cc1sc2ccc(-c3ccn(C)n3)nc2c1-c1ccncc1` [Preparative Example 143, 2-methyl-5-(1-methyl-1H-pyrazol-3-yl)-3-(pyridin-4-yl)thieno[3,2-b]pyridine], the IC50 fell in the range of 500 to 3000 nM.

As to `Cc1cc(-c2ccn(C)n2)nc2c(-c3ccncc3)csc12` [Preparative Example 158, 7-methyl-5-(1-methyl-1H-pyrazol-3-yl)-3-(pyridin-4-yl)thieno[3,2-b]pyridine], the IC50 lay in the range of 100 to 499 nM.
